Results on nine molecules are retold here after PubChem BioAssay AID1259411 (Chemical Carcinogenesis Research Information System (CCRIS), 2018).

SMILES strings stand for the structures. The source made the active and inactive calls. How the calls were made is not given here.

This data set deals with rodent carcinogenicity bioassays, tumor incidence. Put plainly: CCRIS carcinogenicity studies. In outline: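 NCI-built, expert-reviewed records of carcinogenicity and related test outcomes (mutagenicity, tumor promotion/inhibition) compiled from published and report sources, historical span 1985-2011, not updated.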

On to `c1ccoc1`, for which the carcinogen call by setting is: (Species: MOUSE, Strain/Sex: B6C3F1/FEMALE, Route: GAVAGE, Dose: 0, 8, 15 MG/KG IN CORN OIL 5 D/WK FOR 104 WK (STUDY DURATION: 105 WK), Dose: 0, 8, 15 MG/KG IN CORN OIL 5 D/WK FOR 104 WK (STUDY DURATION: 105 WK), Tumor Site: Type of Lesion: ADRENAL MEDULLA: BENIGN PHEOCHROMOCYTOMA, LIVER: HEPATOCELLULAR ADENOMA, HEPATOCELLULAR CARCINOMA) “active; positive”; (Species: MOUSE, Strain/Sex: B6C3F1/MALE, Route: GAVAGE, Dose: 0, 8, 15 MG/KG IN CORN OIL 5 D/WK FOR 104 WK (STUDY DURATION: 105 WK), Dose: 0, 8, 15 MG/KG IN CORN OIL 5 D/WK FOR 104 WK (STUDY DURATION: 105 WK), Tumor Site: Type of Lesion: ADRENAL MEDULLA: BENIGN PHEOCHROMOCYTOMA, LIVER: HEPATOCELLULAR ADENOMA, HEPATOCELLULAR CARCINOMA) “active; positive”; (Species: MOUSE, Strain/Sex: B6C3F1/MALE, Route: INTRAPERITONEAL, Dose: 0, 200 MG/KG BW ONCE EACH ON POSTNATAL DAYS 3, 6, 9, 12, 15 AND 18 (STUDY DURATION: 95 WK), Tumor Site: Type of Lesion: LIVER: ADENOMA OR CARCINOMA) “active; positive”; (Species: MOUSE, Strain/Sex: B6C3F1/MALE, Route: INTRAPERITONEAL, Dose: 0, 400 MG/KG BW ONCE ON POSTNATAL DAY 15 (STUDY DURATION: 95 WK)) “inactive; negative”; (Species: RAT, Strain/Sex: B6C3F1/FEMALE, Route: GAVAGE, Dose: 0, 2, 4, 8 MG/KG IN CORN OIL 5 D/WK FOR 103 WK (STUDY DURATION: 104 WK), Dose: 0, 2, 4, 8 MG/KG IN CORN OIL 5 D/WK FOR 103 WK (STUDY DURATION: 104 WK), Tumor Site: Type of Lesion: LIVER: CHOLANGIOCARCINOMA, HEPATOCELLULAR ADENOMA OR CARCINOMA, HEMATOPOIETIC SYSTEM: MONONUCLEAR CELL LEUKEMIA) “active; positive”; (Species: RAT, Strain/Sex: F344/MALE, Route: GAVAGE, Dose: 0, 2, 4, 8 MG/KG IN CORN OIL 5 D/WK FOR 103 WK (STUDY DURATION: 104 WK), Dose: 0, 2, 4, 8 MG/KG IN CORN OIL 5 D/WK FOR 103 WK (STUDY DURATION: 104 WK), Tumor Site: Type of Lesion: LIVER:CHOLANGIOCARCINOMA, HEPATOCELLULAR ADENOMA, HEPATOCELLULAR CARCINOMA, HEMATOPOIETIC SYSTEM: MONONUCLEAR CELL LEUKE) “active; positive”.
Consider `ClC1=C(Cl)[C@]2(Cl)[C@@H]3[C@H]4C[C@H]([C@@H]5O[C@H]45)[C@@H]3[C@@]1(Cl)C2(Cl)Cl`, for which the carcinogen call was “inactive; negative” (Species: MOUSE, Strain/Sex: B6C3F1/FEMALE, Route: ORAL, Dose: 0, 2.5, 5 PPM IN DIET, TWA, Dose: 0, 2.5, 5 PPM IN DIET, TWA); “inactive; negative” (Species: MOUSE, Strain/Sex: B6C3F1/MALE, Route: ORAL, Dose: 0, 1.6, 3.2 PPM IN DIET, TWA, Dose: 0, 1.6, 3.2 PPM IN DIET, TWA); “inactive; negative” (Species: RAT, Strain/Sex: OSBORNE-MENDEL/FEMALE, Route: ORAL, Dose: 0, 3, 6 PPM IN DIET, TWA, Dose: 0, 3, 6 PPM IN DIET, TWA); “inactive; negative” (Species: RAT, Strain/Sex: OSBORNE-MENDEL/MALE, Route: ORAL, Dose: 0, 2.5, 5 PPM IN DIET, TWA, Dose: 0, 2.5, 5 PPM IN DIET, TWA).
Regarding `Cc1ccccc1N=O`, under “Species: RAT, Strain/Sex: F344/MALE, Route: ORAL, Dose: 3.38 G/KG- DIET FOR 72 WK (TOTAL DOSE 0.21 MOL/RAT), Tumor Site: Type of Lesion: LIVER: HEPATOMA, URINARY BLADDER: PAPILLOMA, PERITONEAL CAVITY: MESOTHELIOMA, SARCOMA, SPLEEN: FIBROMA, INTEGUMENTARY SY, Tumor Site: Type of Lesion: LIVER: HEPATOMA, URINARY BLADDER: PAPILLOMA, PERITONEAL CAVITY: MESOTHELIOMA, SARCOMA, SPLEEN: FIBROMA, INTEGUMENTARY SY”, the carcinogen call is “active; positive”.
Consider `O=CC1CO1` (stereo not drawn), for which the carcinogen call (Species: MOUSE, Route: DERMAL, Tumor Site: Type of Lesion: INTEGUMENTARY SYSTEM (SKIN)) is “active; positive” and the carcinogen call (Species: MOUSE, Route: SUBCUTANEOUS, Tumor Site: Type of Lesion: INJECTION SITE) was “active; positive”.
Consider `Cn1c([N+](=O)[O-])cnc1C1=NOC2CCCCC12` (stereo not drawn), for which the carcinogen call (Species: MOUSE, Strain/Sex: SWISS/FEMALE, Route: INTRAPERITONEAL, Dose: 0, 80 UG/G BW 1/D FOR 30 DAYS (STUDY DURATION: LIFETIME), Tumor Site: Type of Lesion: LYMPHATIC SYSTEM: LYMPHOMA) was “active; positive”.
With `O=P(O)(O)O`, the carcinogen call by setting is: (Species: MOUSE, Strain/Sex: B6C3F1/FEMALE, Route: GAVAGE, Dose: 0, 500, 1000 MG/KG IN DEIONIZED WATER 5D/WK FOR 103 WK (STUDY DURATION: 105 WK), Dose: 0, 500, 1000 MG/KG IN DEIONIZED WATER 5D/WK FOR 103 WK (STUDY DURATION: 105 WK)) “inactive; negative”; (Species: MOUSE, Strain/Sex: B6C3F1/MALE, Route: GAVAGE, Dose: 0, 500, 1000 MG/KG IN DEIONIZED WATER 5D/WK FOR 103 WK (STUDY DURATION: 105 WK), Dose: 0, 500, 1000 MG/KG IN DEIONIZED WATER 5D/WK FOR 103 WK (STUDY DURATION: 105 WK)) “inactive; negative”.
As for `Cn1c(N)nc2c3ccc(=O)[nH]c3ccc21`, the carcinogen call by setting is: (Species: MOUSE, Strain/Sex: CD-1/FEMALE, Route: INTRAPERITONEAL, ORAL, Dose: 0, 5 µL OF A 21.7 MG/ML SOLUTION IN DMSO ON DAYS 1, 3, 5, 7, 10, 13, 17, 21, 24 AND 28 OF LIFE THEN 2/WK TO WK 10 FOLLOW, Tumor Site: Type of Lesion: LIVER: CARCINOMA) “active; positive”; (Species: MOUSE, Strain/Sex: CD-1/MALE, Route: INTRAPERITONEAL, ORAL, Dose: 0, 5 µL OF A 21.7 MG/ML SOLUTION IN DMSO ON DAYS 1, 3, 5, 7, 10, 13, 17, 21, 24 AND 28 OF LIFE THEN 2/WK TO WK 10 FOLLOW) “inactive; negative”; (Species: RAT, Strain/Sex: F344/MALE, Route: INTRARECTAL, Dose: 0, 54.8 MG/KG IN 1.7 ML/KG DMSO INFUSED 3/WK FOR 2 MO THEN 2/WK FOR DURATION OF STUDY (STUDY DURATION: 21 MO)) “inactive; negative”.
In the case of `OC1c2cc3c4c(ccc5cccc(c54)C3)c2C2OC2C1O` (stereo not drawn), the carcinogen call was “active; positive” (Species: MOUSE, Strain/Sex: ICR/FEMALE, Route: INTRAPERITONEAL, Dose: 0, 500 NMOL (TOTAL DOSE) ADMINISTERED IN DOSES OF 1/7, 2/7, AND 4/7 ON DAYS 1, 7, AND 15 OF LIFE, RESPECTIVELY (STUDY DU, Tumor Site: Type of Lesion: LUNG: TUMOR) and “active; positive” (Species: MOUSE, Strain/Sex: ICR/MALE, Route: INTRAPERITONEAL, Dose: 0, 500 NMOL (TOTAL DOSE) ADMINISTERED IN DOSES OF 1/7, 2/7, AND 4/7 ON DAYS 1, 7 AND 15 OF LIFE , RESPECTIVELY (STUDY DU, Tumor Site: Type of Lesion: LUNG: TUMOR, LIVER: TUMOR).
On to `OCCO`, for which the carcinogen call is “inactive; negative” (Species: MOUSE, Strain/Sex: B6C3F1/FEMALE, Route: ORAL, Dose: 0, 12500, 25000, 50000 PPM IN DIET FOR 721 D (STUDY DURATION: 105 WK), Dose: 0, 12500, 25000, 50000 PPM IN DIET FOR 721 D (STUDY DURATION: 105 WK)) and “inactive; negative” (Species: MOUSE, Strain/Sex: B6C3F1/MALE, Route: ORAL, Dose: 0, 6250, 12500, 25000 PPM IN DIET FOR 721 D (STUDY DURATION: 105 WK), Dose: 0, 6250, 12500, 25000 PPM IN DIET FOR 721 D (STUDY DURATION: 105 WK)).
